In patent US7598245B2 (Vertex Pharmaceuticals Incorporated, priority 2003, dated 2009) one finds Ki data, which are given here for 28 compounds.

Molecules are shown by their SMILES.

Assay [1] concerns the target T1, FLT-3 (Homo sapiens, UniProt P36888).
T1 construct: 0.02% BSA and 3 nM FLT-3
T1 sequence (P36888 27-993): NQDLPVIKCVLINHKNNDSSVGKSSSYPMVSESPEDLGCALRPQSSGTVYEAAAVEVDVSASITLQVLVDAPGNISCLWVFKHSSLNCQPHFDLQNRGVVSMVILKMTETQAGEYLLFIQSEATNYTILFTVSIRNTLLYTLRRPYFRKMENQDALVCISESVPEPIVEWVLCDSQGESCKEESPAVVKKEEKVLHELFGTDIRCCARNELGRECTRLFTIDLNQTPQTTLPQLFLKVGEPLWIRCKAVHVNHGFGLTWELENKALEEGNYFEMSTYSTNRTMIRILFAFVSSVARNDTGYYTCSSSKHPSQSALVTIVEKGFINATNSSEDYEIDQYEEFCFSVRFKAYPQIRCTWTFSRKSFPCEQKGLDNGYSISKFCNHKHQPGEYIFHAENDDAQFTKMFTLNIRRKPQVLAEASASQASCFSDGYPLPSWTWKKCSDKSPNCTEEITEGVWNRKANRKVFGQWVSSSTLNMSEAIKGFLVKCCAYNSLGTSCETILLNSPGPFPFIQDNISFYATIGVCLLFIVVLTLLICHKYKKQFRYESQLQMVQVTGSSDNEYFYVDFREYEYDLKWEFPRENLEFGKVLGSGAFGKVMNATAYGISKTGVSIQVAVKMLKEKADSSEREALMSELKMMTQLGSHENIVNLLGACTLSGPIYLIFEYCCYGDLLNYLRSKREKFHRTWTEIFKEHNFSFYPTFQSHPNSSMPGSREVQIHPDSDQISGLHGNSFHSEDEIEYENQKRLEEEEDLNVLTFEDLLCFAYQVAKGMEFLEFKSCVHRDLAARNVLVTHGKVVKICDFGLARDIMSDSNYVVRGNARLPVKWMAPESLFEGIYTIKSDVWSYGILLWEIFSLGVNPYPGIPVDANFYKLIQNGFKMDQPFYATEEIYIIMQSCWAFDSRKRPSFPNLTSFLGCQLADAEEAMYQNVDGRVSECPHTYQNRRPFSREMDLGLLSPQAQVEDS
Kind of assay: Inhibition of FLT-3, radiometric filter-binding assay. Conditions: 90 μM ATP, pE4Y substrate; read-out: Ki values (FLT-3). The class given is biochemical. On the procedure: Compounds were screened for their ability to inhibit FLT-3 activity using a radiometric filter-binding assay. This assay monitors the ^33P incorporation into a substrate poly(Glu, Tyr) 4:1 (pE4Y). Reactions were carried out in a solution containing 100 mM HEPES (pH 7.5), 10 mM MgCl2, 25 mM NaCl, 1 mM DTT, 0.01% BSA and 2.5% DMSO. Final substrate concentrations in the assay were 90 μM ATP and 0.5 mg/mL pE4Y (both from Sigma Chemicals, St Louis, Mo.). The final concentration of compounds is generally between 0.01 and 5 μM. Typically, a 12-point titration was conducted by preparing serial dilutions from 10 mM DMSO stock of test compound. Reactions were carried out at room temperature.
Two assay solutions were prepared. Solution 1 contains 100 mM HEPES (pH 7.5), 10 mM MgCl2, 25 mM NaCl, 1 mg/ml pE4Y and 180 μM ATP (containing 0.3 μCi of [γ-^33P]ATP for each reaction). Solution 2 contains 100 mM HEPES (pH 7.5), 10 mM MgCl2, 25 mM NaCl, 2 mM DTT, 0.02% BSA and 3 nM FLT-3. The assay was run on a 96 well plate by mixing 50 μL each of Solution1 and 2.5 mL of the test compounds. The reaction was initiated with Solution2. After incubation for 20 minutes at room temperature, the reaction was stopped with 50 μL of 20% TCA containing 0.4 mM of ATP. All of the reaction volume was then transferred to a filter plate and washed with 5% TCA by a Harvester9600 from TOMTEC (Hamden, Conn.). The amount of ^33P incorporation into pE4y was analyzed by a Packard TopCount Microplate Scintillation Counter (Meriden, Conn.). The data was fitted using Prism software to get an IC50 or Ki.

In assay [2] the target is KDR (Homo sapiens, UniProt P35968). In words: Inhibition of KDR, coupled enzyme assay. The class given is biochemical. Conditions: 300 μM ATP, 37° C. On the procedure:
Compounds were screened for their ability to inhibit KDR using a standard coupled enzyme assay (Fox et al., Protein Sci., (1998) 7, 2249). Assays were carried out in a mixture of 200 mM HEPES 7.5, 10 mM MgCl2, 25 mM NaCl, 1 mM DTT and 1.5% DMSO. Final substrate concentrations in the assay were 300 μM ATP (Sigma Chemicals) and 10 μM poly E4Y (Sigma). Assays were carried out at 37° C. and 30 nM KDR. Final concentrations of the components of the coupled enzyme system were 2.5 mM phosphoenolpyruvate, 200 μM NADH, 30 μg/ML pyruvate kinase and 10 μg/ml lactate dehydrogenase.
An assay stock buffer solution was prepared containing all of the reagents listed above, with the exception of ATP and the test compound of interest. 177 μl of the stock solution was placed in a 96 well plate followed by addition of 3 μl of 2 mM DMSO stock containing the test compound (final compound concentration 30 μM). The plate was preincubated for about 10 minutes at 37° C. and the reaction initiated by addition of 20 μl of ATP (final concentration 300 μM). Rates of reaction were obtained using a Molecular Devices plate reader (Sunnyvale, Calif.) over a 5 minute read time at 37° C.

KDR, sequence (P35968 20-1356): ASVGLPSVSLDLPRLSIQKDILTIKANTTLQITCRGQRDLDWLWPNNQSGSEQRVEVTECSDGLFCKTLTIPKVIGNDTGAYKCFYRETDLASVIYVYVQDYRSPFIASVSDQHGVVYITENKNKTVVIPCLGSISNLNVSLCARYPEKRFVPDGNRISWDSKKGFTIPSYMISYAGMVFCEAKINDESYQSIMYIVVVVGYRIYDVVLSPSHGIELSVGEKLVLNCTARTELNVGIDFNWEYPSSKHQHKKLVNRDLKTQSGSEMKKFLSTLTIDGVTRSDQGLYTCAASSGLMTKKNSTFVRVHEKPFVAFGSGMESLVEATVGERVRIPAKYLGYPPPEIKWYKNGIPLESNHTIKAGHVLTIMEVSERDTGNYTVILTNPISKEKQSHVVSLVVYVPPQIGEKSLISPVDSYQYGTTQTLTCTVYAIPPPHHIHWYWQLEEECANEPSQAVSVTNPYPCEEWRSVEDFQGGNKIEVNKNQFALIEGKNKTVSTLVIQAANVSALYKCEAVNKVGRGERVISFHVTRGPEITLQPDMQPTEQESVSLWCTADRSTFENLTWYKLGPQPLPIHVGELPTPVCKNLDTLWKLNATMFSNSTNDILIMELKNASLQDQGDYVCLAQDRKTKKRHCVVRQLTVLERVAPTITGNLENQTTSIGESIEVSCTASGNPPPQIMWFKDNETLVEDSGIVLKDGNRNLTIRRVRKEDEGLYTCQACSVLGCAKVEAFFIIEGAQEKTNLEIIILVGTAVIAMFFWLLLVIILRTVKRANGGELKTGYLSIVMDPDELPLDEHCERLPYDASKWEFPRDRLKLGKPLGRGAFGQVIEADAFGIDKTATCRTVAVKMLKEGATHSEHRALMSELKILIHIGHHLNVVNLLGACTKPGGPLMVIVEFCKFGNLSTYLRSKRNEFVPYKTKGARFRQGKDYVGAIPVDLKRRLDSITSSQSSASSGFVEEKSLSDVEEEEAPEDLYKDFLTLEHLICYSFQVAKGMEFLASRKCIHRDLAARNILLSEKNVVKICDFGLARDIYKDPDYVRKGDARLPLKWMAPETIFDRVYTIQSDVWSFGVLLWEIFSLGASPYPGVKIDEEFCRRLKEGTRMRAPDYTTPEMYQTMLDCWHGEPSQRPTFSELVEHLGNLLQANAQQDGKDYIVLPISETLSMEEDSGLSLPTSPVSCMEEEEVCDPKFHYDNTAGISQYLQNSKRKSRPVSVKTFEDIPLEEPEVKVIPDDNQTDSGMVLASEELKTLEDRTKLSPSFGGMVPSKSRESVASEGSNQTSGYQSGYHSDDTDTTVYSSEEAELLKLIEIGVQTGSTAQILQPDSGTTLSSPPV

The Ki is the equilibrium dissociation constant of an inhibitor or competing ligand from its target. Turning to `CC(=O)N1[C@H](C)CN(c2cc(-n3cnc(Nc4ccc(N5CCOCC5)cc4)n3)ccn2)C[C@@H]1C` [Compound I-85, 1-(2,6-Dimethyl-4-{4-[3-(4-morpholin-4-yl-phenylamino)-[1,2,4]triazol-1-yl]-pyridin-2-yl}-piperazin-1-yl)-ethanone], the Ki in assay [1] was in the range of 30 to 200 nM; in assay [2], 100 to 1000 nM.

For `CN(Cc1cccnc1)c1cc(-n2cnc(Nc3ccccc3)n2)ccn1` [Compound I-57], the results for the Ki in assay [1] and in assay [2] were 1 to 30 nM and < 100 nM, respectively.

Regarding `CC(C)(C)CC(=O)Nc1cc(-n2cnc(Nc3ccccc3)n2)ccn1` [Compound I-102], the Ki was 1 to 30 nM in assay [1] and 100 to 1000 nM in assay [2].

As for `CCOC(=O)c1ccc(Nc2ncn(-c3ccnc(N4CCCN(C(C)=O)CC4)c3)n2)cc1` [Compound I-76], the Ki in assay [1] lay within 30 to 200 nM; in assay [2], 100 to 1000 nM.

As to `CCN(CC)CCNc1cc(-n2cnc(Nc3ccccc3)n2)ccn1` [Compound I-60], the Ki is 30 to 200 nM in assay [1] and > 1000 nM in assay [2].

Consider `CCNC(=O)Nc1ccc(Nc2ncn(-c3ccnc(N4C[C@@H](C)N(C(C)=O)[C@@H](C)C4)c3)n2)cc1` [Compound I-98, 1-(4-{1-[2-(4-Acetyl-3,5-dimethyl-piperazin-1-yl)-pyridin-4-yl]-1H-[1,2,4]triazol-3-ylamino}-phenyl)-3-ethyl-urea], for which the Ki in assay [1] was 1 to 30 nM; in assay [2] it was < 100 nM.

For `COCC(=O)N1CCCN(c2cc(-n3cnc(Nc4ccccc4)n3)ccn2)CC1` [Compound I-71], the figures for the Ki in assay [1] and in assay [2] were 30 to 200 nM and 100 to 1000 nM, respectively.

As to `CC(=O)N1[C@H](C)CN(c2cc(-n3cnc(Nc4ccc(NC(=O)OC(C)C)cc4)n3)ccn2)C[C@@H]1C` [Compound I-89], the Ki in assay [1] was 30 to 200 nM; in assay [2], 100 to 1000 nM.

`c1ccc(Nc2ncn(-c3ccnc(N4CCCCC4)c3)n2)cc1` [Compound I-49, phenyl-[1-(3,4,5,6-tetrahydro-2H-[1,2′]bipyridinyl-4′-yl)-1H-[1,2,4]triazol-3-yl]-amine]: the figures for the Ki in assay [1] and in assay [2] were < 60 nM and < 100 nM, respectively.

With `CC1CCCN1c1cc(-n2cnc(Nc3ccccc3)n2)ccn1` (centres unmarked) [Compound I-56], the results for the inhibition constant Ki in assay [1] and in assay [2] were 1 to 30 nM and < 100 nM, respectively.

As for `O=C(C1CCCO1)N1CCN(c2cc(-n3cnc(Nc4ccccc4)n3)ccn2)CC1` (centres unmarked) [Compound I-64], the Ki in assay [1] was > 200 nM; in assay [2], > 1000 nM.

For the compound `CCCN(CCO)c1cc(-n2cnc(Nc3ccccc3)n2)ccn1` [Compound I-58], the values for the Ki in assay [1] and in assay [2] were 1 to 30 nM and < 100 nM, respectively.

Consider `COCCN(C)c1cc(-n2cnc(Nc3ccccc3)n2)ccn1` [Compound I-59, (2-methoxy-ethyl)-methyl-[4-(3-phenylamino-[1,2,4]triazol-1-yl)-pyridin-2-yl]-amine], for which the Ki in assay [1] was 1 to 30 nM; in assay [2] it was < 100 nM.

As for `CCCNC(=O)Nc1ccc(Nc2ncn(-c3ccnc(N4C[C@@H](C)N(C(C)=O)[C@@H](C)C4)c3)n2)cc1` [Compound I-99], the Ki in assay [1] was 1 to 30 nM; in assay [2] it was < 100 nM.

As for `CC(=O)N1[C@H](C)CN(c2cc(-n3cnc(Nc4ccc(NC(=O)OCC(C)(C)C)cc4)n3)ccn2)C[C@@H]1C` [Compound I-91], the Ki lay within 30 to 200 nM in assay [1] and 100 to 1000 nM in assay [2].

For `CC(=O)N1CCCN(c2cc(-n3cnc(Nc4ccccc4)n3)ccn2)CC1` [Compound I-66], the Ki in assay [1] was < 60 nM; in assay [2], 100 to 1000 nM.

`CCCOC(=O)Nc1ccc(Nc2ncn(-c3ccnc(N4C[C@@H](C)N(C(C)=O)[C@@H](C)C4)c3)n2)cc1` [Compound I-88]: the Ki in assay [1] fell in the range of 30 to 200 nM; in assay [2], 100 to 1000 nM.

Take `c1ccc(-n2cnc(Nc3ccc(N4CCOCC4)cc3)n2)cc1` [Compound I-106]: the Ki in assay [1] lay in the range of 30 to 200 nM; in assay [2], 100 to 1000 nM.

For the compound `c1ccc(-n2cnc(Nc3ccnc(N4CCOCC4)c3)n2)cc1` [Compound I-105], the inhibition constant (Ki) lay in the range of 1 to 30 nM in assay [1] and 100 to 1000 nM in assay [2].

Consider `CC(=O)N1[C@H](C)CN(c2cc(-n3cnc(Nc4ccc(N)cc4)n3)ccn2)C[C@@H]1C` [Compound I-82], for which the figures for the inhibition constant (Ki) in assay [1] and in assay [2] were < 60 nM and < 100 nM, respectively.

In the case of `CC(=O)N1[C@H](C)CN(c2cc(-n3cnc(Nc4ccc(N5CCN(S(=O)(=O)c6ccc(C)cc6)CC5)cc4)n3)ccn2)C[C@@H]1C` [Compound I-92], the Ki is 30 to 200 nM in assay [1] and < 100 nM in assay [2].

As to `CCCC(=O)N1CCCN(c2cc(-n3cnc(Nc4ccccc4)n3)ccn2)CC1` [Compound I-68], the values for the Ki in assay [1] and in assay [2] were 30 to 200 nM and > 1000 nM, respectively.

For `CC(=O)N1[C@H](C)CN(c2cc(-n3cnc(Nc4ccc(NC(=O)c5cccs5)cc4)n3)ccn2)C[C@@H]1C` [Compound I-80], the Ki was < 60 nM in assay [1] and 100 to 1000 nM in assay [2].

With `CCOC(=O)c1ccc(Nc2ncn(-c3ccnc(N4C[C@@H](C)N(C(C)=O)[C@@H](C)C4)c3)n2)cc1` [Compound I-75], the Ki is 30 to 200 nM in assay [1] and < 100 nM in assay [2].

For `CCC(=O)N1CCCN(c2cc(-n3cnc(Nc4ccccc4)n3)ccn2)CC1` [Compound I-67], the Ki was in the range of 30 to 200 nM in assay [1] and 100 to 1000 nM in assay [2].

Turning to `O=C(CCc1ccccc1)Nc1cc(-n2cnc(Nc3ccccc3)n2)ccn1` [Compound I-95], the Ki in assay [1] was 1 to 30 nM; in assay [2], 100 to 1000 nM.

`CC(=O)N1[C@H](C)CN(c2cc(-n3cnc(Nc4ccccc4)n3)ccn2)C[C@@H]1C` [Compound I-74]: the results for the Ki in assay [1] and in assay [2] were < 60 nM and < 100 nM, respectively.

As for `CC(=O)N1[C@H](C)CN(c2cc(-n3cnc(Nc4ccc(NC(=O)NC(C)(C)C)cc4)n3)ccn2)C[C@@H]1C` [Compound I-101], the Ki lay within 30 to 200 nM in assay [1] and 100 to 1000 nM in assay [2].
